This is an account of results in US20060160895A1, “Anti-cancer agents” (priority 2004, published 2006).

What all share (format): cell-based, human
The subject of one assay is lung carcinoma (A549). Kind of assay: in vitro MTT proliferation assay, A549 cells. Particulars: 48 hrs; for inhibition of cancer cell line A549: 0.3-100 μg/ml, absorbance at 492 nm; for IC50 values for A549: calculated with XLfit. As for the experimental part: (§1) An in vitro assay was conducted to evaluate the efficacy of LuA, LuB, and LuE in inhibiting proliferation of cancer cells.
(§2) Four human tumor cell lines, i.e., gastric adenocarcinoma (AGS, BGC-823), lung carcinoma (A549), and lung adenocarcinoma (SPC-A-1), were purchased from the Cell Bank of Shanghai Institute of Cell Biology, Chinese Academy of Sciences, and cultured in Iscove's Modified Dulbecco's Medium (IMDM) containing 10% fetal bovine serum (FBS) in an incubator at 37° C. under 5% CO2. Cells of 70˜80% confluence were trypsinized, resuspended in IMDM medium containing 10% FBS at 1×10^5 cells/ml, and seeded in 96-well plates (100 μl in each well). The plates were incubated at 37° C. under 5% CO2 overnight.
(§3) A DMSO solution containing LuA, LuB, or LuE was added to each “treatment” well. Efficacy of LuA, LuB, and LuE at six concentrations, 100, 30, 10, 3, 1, and 0.3 μg/ml, was studied. Wells, to each of which a DMSO solution (containing no LuA, LuB, or LuE) was added, were used as “control;” and wells, to each of which no LuA, LuB, LuE, or DMSO was added, were used as “background.” The plates were then incubated at 37° C. under 5% CO2 for 48 hrs.
(§4) 10 μl of 3-(4,5-dimethyl-thiazol-2-yl)-2,5-diphenyl tetrazolium bromide in phosphate buffered saline (PBS), 5 mg/ml, was added to all wells except the background wells. After incubation for 3-4 hrs, the cells were collected by spinning at 1000 rpm for 15 minutes, followed by removal of the supernatants by vacuum. The cells thus collected in each well, after wash with 150 μl of PBS, were placed in 150 μl of DMSO.
(§5) The plates were then placed on a shaker at 150 rpm for 15 minutes to dissolve the precipitate in each well. Absorbance was measured at 492 nm using a microplate reader.
(§6) Inhibition ratios for cells treated with LuA, LuB, and LuE, respectively, were calculated according to the following equation: [formula]
(§7) A software program, XLfit (ID Business Solutions), was used to calculate the concentrations of LuA, LuB, and LuE required to reach 10, 20, . . . 90% inhibition (i.e., IC10, IC20, . . . IC90) for each tested tumor cell line.

The subject of assay [1] is gastric adenocarcinoma (BGC-823). Nature of the assay: in vitro MTT proliferation assay, BGC-823 cells. Conditions: 48 hrs; for inhibition of cancer cell line BGC-823: 0.3-100 μg/ml, absorbance at 492 nm; for IC50 values for BGC-823: calculated with XLfit. The method, then: as §1, §2, §3, §4, §5, §6, §7
Assay [2] concerns gastric adenocarcinoma (AGS). Nature of the assay: in vitro MTT proliferation assay, AGS cells. Conditions: 48 hrs; for inhibition of cancer cell line AGS: 0.3-100 μg/ml, absorbance at 492 nm; for IC50 values for AGS: calculated with XLfit. As for the experimental part: as §1, §2, §3, §4, §5, §6, §7
Assay [3] deals with lung adenocarcinoma (SPC-A-1). Kind of assay: in vitro MTT proliferation assay, SPC-A-1 cells. Particulars: 48 hrs, 0.3-100 μg/ml, absorbance at 492 nm. The method, then:
as §1, §2, §3, §4, §5, §6, §7
For orientation: Tetrazolium assays rely on reduction of a dye to a coloured formazan, in cell work by metabolically active cells.

As for `C=C1C(=O)[C@]23C[C@H]1C[C@H](OC(C)=O)[C@H]2[C@]1(C)C[C@H](OC(C)=O)[C@H](OC(C)=O)C(C)(C)[C@H]1[C@@H](OC(C)=O)[C@@H]3O` [LuA, Lushanrubescensin A], in the assay with lung carcinoma (A549), the “inhibition of cancer cell line A549” value is listed as “effectively inhibited” and the “IC50 values for A549” value is reported as “particularly low”. Besides, in assay [1], the “inhibition of cancer cell line BGC-823” value is listed as “effectively inhibited” and the “IC50 values for BGC-823” value is “particularly low”. Besides, in assay [2], the “inhibition of cancer cell line AGS” value is recorded as “effectively inhibited” and the “IC50 values for AGS” value is “particularly low”. Also, in assay [3], the “inhibition of cancer cell line SPC-A-1” value was “effectively inhibited”.
`C=C1C(=O)[C@]23C[C@H]1C[C@H](O)[C@H]2[C@]1(C)C[C@H](OC(C)=O)[C@H](OC(C)=O)C(C)(C)[C@H]1[C@@H](OC(C)=O)[C@@H]3O` [LuB, Lushanrubescensin B]: in the assay on lung carcinoma (A549), the “inhibition of cancer cell line A549” value is recorded as “effectively inhibited” and the “IC50 values for A549” value was “particularly low”. In addition, in assay [1], the “inhibition of cancer cell line BGC-823” value was “effectively inhibited” and the “IC50 values for BGC-823” value is recorded as “particularly low”. In assay [2], the “inhibition of cancer cell line AGS” value is recorded as “effectively inhibited” and the “IC50 values for AGS” value is “particularly low”. For the same molecule, the “inhibition of cancer cell line SPC-A-1” value in assay [3] is “effectively inhibited”.
Regarding `C=C1C(=O)[C@]23C[C@H]1C[C@@H](O)[C@H]2[C@]1(C)C[C@H](OC(C)=O)[C@H](OC(C)=O)C(C)(C)[C@H]1[C@@H](OC(C)=O)[C@@H]3O` [LuE, Lushanrubescensin E], the “inhibition of cancer cell line A549” value in the assay on lung carcinoma (A549) is listed as “effectively inhibited”. Also, in assay [1], the “inhibition of cancer cell line BGC-823” value is listed as “effectively inhibited”. Besides, in assay [2], the “inhibition of cancer cell line AGS” value is recorded as “effectively inhibited”. Also, in assay [3], the “inhibition of cancer cell line SPC-A-1” value was “effectively inhibited”.
